From patent US10781224B2, “Bis(oxymethyl)phosphinic acid and biogenic metal salts thereof as regulators of plant growth and development” (priority 2016, dated 2020)

System: rice (Diamant variety)
Assay: Rice seed treatment with BHMPA salts: germinating power
Format: in vivo
Settings: for optimum concentration for treating rice seeds before sowing / dry mass of the roots increased by / dry mass of the sprouts increased by / length of the root increased by / length of the sprout increased by / wet mass of the roots increased by / wet mass of the sprouts increased by: rice; for dry mass of the roots increased by / dry mass of the sprouts increased by / length of the root increased by / length of the sprout increased by / wet mass of the roots increased by / wet mass of the sprouts increased by: vs control
Procedure, shortened: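 Seeds (50 per Petri dish on two layers of filter paper) soaked 1 h in BHMPA or its Ca, Mg, Na, Co, Mn, Cu or Zn salts at 1·10^−6-1·10^−12%, with water controls. Germination energy read on day 4, germination on day 8 (wheat) or day 7 (rice, corn), as % means of four replicates. Germinating power taken as root and sprout length plus wet and dry mass per 100 seedlings.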

[1] = rice seed treatment, comparison with Melaphen (Table XXXIII), solution 1 · 10^−9%
[2] = rice seeds, solution concentration 1 · 10^−6%
[3] = rice seeds, solution concentration 1 · 10^−7%
[4] = rice seeds, solution concentration 1 · 10^−8%
[5] = rice seeds, solution concentration 1 · 10^−9%
[6] = rice seeds, solution concentration 1 · 10^−10%
[7] = rice seeds, solution concentration 1 · 10^−11%
[8] = rice seeds, solution concentration 1 · 10^−12%
[9] = rice seed treatment, comparison with Melaphen (Table XXXIII), solution 1 · 10^−11%

Compound: O.O.O=P([O-])(CO)CO.O=P([O-])(CO)CO.[Mn+2] [Mn-salt, Manganese BHMPA Salt]
- optimum concentration for treating rice seeds before sowing: 1·10^−9%
- Length, root [1]: 6.8 cm
- Length, root, + % to control [1]: 42%
- Length, sprout [1]: 4.2 cm
- Length, sprout, + % to control [1]: 35%
- Mass, dry, root [1]: 0.24 g/100 plantlings
- Mass, dry, root, + % to control [1]: 14%
- Mass, dry, sprout [1]: 0.28 g/100 plantlings
- Mass, dry, sprout, + % to control [1]: 12%
- Mass, wet, root [1]: 1.34 g/100 plantlings
- Mass, wet, root, + % to control [1]: 37%
- Mass, wet, sprout [1]: 2.34 g/100 plantlings
- Mass, wet, sprout, + % to control [1]: 55%
- Length, root [2]: 6.2 cm
- Length, root, + % to control [2]: 3%
- Length, sprout [2]: 2.7 cm
- Length, sprout, + % to control [2]: 8%
- Mass, dry, root [2]: 0.22 g/100 plantlings
- Mass, dry, root, + % to control [2]: 10%
- Mass, dry, sprout [2]: 0.29 g/100 plantlings
- Mass, dry, sprout, + % to control [2]: 11.5%
- Mass, wet, root [2]: 1.13 g/100 plantlings
- Mass, wet, root, + % to control [2]: 15%
- Mass, wet, sprout [2]: 1.80 g/100 plantlings
- Mass, wet, sprout, + % to control [2]: 5%
- Length, root [3]: 6.4 cm
- Length, root, + % to control [3]: 7%
- Length, sprout [3]: 2.9 cm
- Length, sprout, + % to control [3]: 16%
- Mass, dry, root [3]: 0.25 g/100 plantlings
- Mass, dry, root, + % to control [3]: 25%
- Mass, dry, sprout [3]: 0.36 g/100 plantlings
- Mass, dry, sprout, + % to control [3]: 38%
- Mass, wet, root [3]: 1.21 g/100 plantlings
- Mass, wet, root, + % to control [3]: 23%
- Mass, wet, sprout [3]: 2.12 g/100 plantlings
- Mass, wet, sprout, + % to control [3]: 23%
- Length, root [4]: 6.5 cm
- Length, root, + % to control [4]: 8%
- Length, sprout [4]: 3.1 cm
- Length, sprout, + % to control [4]: 24%
- Mass, dry, root [4]: 0.28 g/100 plantlings
- Mass, dry, root, + % to control [4]: 40%
- Mass, dry, sprout [4]: 0.41 g/100 plantlings
- Mass, dry, sprout, + % to control [4]: 58%
- Mass, wet, root [4]: 1.30 g/100 plantlings
- Mass, wet, root, + % to control [4]: 33%
- Mass, wet, sprout [4]: 2.26 g/100 plantlings
- Mass, wet, sprout, + % to control [4]: 31%
- Length, root [5]: 6.8 cm
- Length, root, + % to control [5]: 13%
- Length, sprout [5]: 3.3 cm
- Length, sprout, + % to control [5]: 32%
- Mass, dry, root [5]: 0.32 g/100 plantlings
- Mass, dry, root, + % to control [5]: 60%
- Mass, dry, sprout [5]: 0.44 g/100 plantlings
- Mass, dry, sprout, + % to control [5]: 69%
- Mass, wet, root [5]: 1.44 g/100 plantlings
- Mass, wet, root, + % to control [5]: 47%
- Mass, wet, sprout [5]: 2.41 g/100 plantlings
- Mass, wet, sprout, + % to control [5]: 40%
- Length, root [6]: 6.7 cm
- Length, root, + % to control [6]: 12%
- Length, sprout [6]: 3.0 cm
- Length, sprout, + % to control [6]: 12%
- Mass, dry, root [6]: 0.26 g/100 plantlings
- Mass, dry, root, + % to control [6]: 30%
- Mass, dry, sprout [6]: 0.39 g/100 plantlings
- Mass, dry, sprout, + % to control [6]: 50%
- Mass, wet, root [6]: 1.33 g/100 plantlings
- Mass, wet, root, + % to control [6]: 36%
- Mass, wet, sprout [6]: 2.30 g/100 plantlings
- Mass, wet, sprout, + % to control [6]: 34%
- Length, root [7]: 6.5 cm
- Length, root, + % to control [7]: 8%
- Length, sprout [7]: 2.9 cm
- Length, sprout, + % to control [7]: 16%
- Mass, dry, root [7]: 0.23 g/100 plantlings
- Mass, dry, root, + % to control [7]: 15%
- Mass, dry, sprout [7]: 0.36 g/100 plantlings
- Mass, dry, sprout, + % to control [7]: 38%
- Mass, wet, root [7]: 1.29 g/100 plantlings
- Mass, wet, root, + % to control [7]: 31%
- Mass, wet, sprout [7]: 2.21 g/100 plantlings
- Mass, wet, sprout, + % to control [7]: 28%
- Length, root [8]: 6.3 cm
- Length, root, + % to control [8]: 5%
- Length, sprout [8]: 2.7 cm
- Length, sprout, + % to control [8]: 8%
- Mass, dry, root [8]: 0.20 g/100 plantlings
- Mass, dry, root, + % to control [8]: 0%
- Mass, dry, sprout [8]: 0.32 g/100 plantlings
- Mass, dry, sprout, + % to control [8]: 23%
- Mass, wet, root [8]: 1.27 g/100 plantlings
- Mass, wet, root, + % to control [8]: 29%
- Mass, wet, sprout [8]: 2.14 g/100 plantlings
- Mass, wet, sprout, + % to control [8]: 24%
- dry mass of the roots increased by (1·10^−9% solution): 60%
- dry mass of the sprouts increased by (1·10^−9% solution): 69%
- length of the root increased by (1·10^−9% solution): 13%
- length of the sprout increased by (1·10^−9% solution): 32%
- wet mass of the roots increased by (1·10^−9% solution): 47%
- wet mass of the sprouts increased by (1·10^−9% solution): 40%

Compound: O=P([O-])(CO)CO.[Na+] [Na-salt, Sodium BHMPA Salt]
- optimum concentration for treating rice seeds before sowing: 1·10^−11%
- Length, root [9]: 5.9 cm
- Length, root, + % to control [9]: 23%
- Length, sprout [9]: 3.4 cm
- Length, sprout, + % to control [9]: 46%
- Mass, dry, root [9]: 0.22 g/100 plantlings
- Mass, dry, root, + % to control [9]: 5%
- Mass, dry, sprout [9]: 0.26 g/100 plantlings
- Mass, dry, sprout, + % to control [9]: 24%
- Mass, wet, root [9]: 1.31 g/100 plantlings
- Mass, wet, root, + % to control [9]: 34%
- Mass, wet, sprout [9]: 2.22 g/100 plantlings
- Mass, wet, sprout, + % to control [9]: 47%
- Length, root [2]: 5.4 cm
- Length, root, + % to control [2]: 4%
- Length, sprout [2]: 2.3 cm
- Length, sprout, + % to control [2]: 9.5%
- Mass, dry, root [2]: 0.21 g/100 plantlings
- Mass, dry, root, + % to control [2]: 5%
- Mass, dry, sprout [2]: 0.28 g/100 plantlings
- Mass, dry, sprout, + % to control [2]: 8%
- Mass, wet, root [2]: 1.06 g/100 plantlings
- Mass, wet, root, + % to control [2]: 16.5%
- Mass, wet, sprout [2]: 1.73 g/100 plantlings
- Mass, wet, sprout, + % to control [2]: 5.5%
- Length, root [3]: 5.6 cm
- Length, root, + % to control [3]: 8%
- Length, sprout [3]: 2.4 cm
- Length, sprout, + % to control [3]: 14%
- Mass, dry, root [3]: 0.22 g/100 plantlings
- Mass, dry, root, + % to control [3]: 10%
- Mass, dry, sprout [3]: 0.30 g/100 plantlings
- Mass, dry, sprout, + % to control [3]: 15%
- Mass, wet, root [3]: 1.10 g/100 plantlings
- Mass, wet, root, + % to control [3]: 21%
- Mass, wet, sprout [3]: 1.81 g/100 plantlings
- Mass, wet, sprout, + % to control [3]: 10%
- Length, root [4]: 5.8 cm
- Length, root, + % to control [4]: 11.5%
- Length, sprout [4]: 2.6 cm
- Length, sprout, + % to control [4]: 24%
- Mass, dry, root [4]: 0.23 g/100 plantlings
- Mass, dry, root, + % to control [4]: 15%
- Mass, dry, sprout [4]: 0.31 g/100 plantlings
- Mass, dry, sprout, + % to control [4]: 19%
- Mass, wet, root [4]: 1.14 g/100 plantlings
- Mass, wet, root, + % to control [4]: 25%
- Mass, wet, sprout [4]: 1.89 g/100 plantlings
- Mass, wet, sprout, + % to control [4]: 15%
- Length, root [5]: 6.0 cm
- Length, root, + % to control [5]: 15%
- Length, sprout [5]: 2.8 cm
- Length, sprout, + % to control [5]: 33%
- Mass, dry, root [5]: 0.25 g/100 plantlings
- Mass, dry, root, + % to control [5]: 25%
- Mass, dry, sprout [5]: 0.33 g/100 plantlings
- Mass, dry, sprout, + % to control [5]: 27%
- Mass, wet, root [5]: 1.17 g/100 plantlings
- Mass, wet, root, + % to control [5]: 28.5%
- Mass, wet, sprout [5]: 2.00 g/100 plantlings
- Mass, wet, sprout, + % to control [5]: 22%
- Length, root [6]: 6.3 cm
- Length, root, + % to control [6]: 21%
- Length, sprout [6]: 3.5 cm
- Length, sprout, + % to control [6]: 58%
- Mass, dry, root [6]: 0.27 g/100 plantlings
- Mass, dry, root, + % to control [6]: 35%
- Mass, dry, sprout [6]: 0.35 g/100 plantlings
- Mass, dry, sprout, + % to control [6]: 35%
- Mass, wet, root [6]: 1.26 g/100 plantlings
- Mass, wet, root, + % to control [6]: 38%
- Mass, wet, sprout [6]: 2.18 g/100 plantlings
- Mass, wet, sprout, + % to control [6]: 33%
- Length, root [7]: 6.4 cm
- Length, root, + % to control [7]: 23%
- Length, sprout [7]: 4.0 cm
- Length, sprout, + % to control [7]: 90%
- Mass, dry, root [7]: 0.30 g/100 plantlings
- Mass, dry, root, + % to control [7]: 50%
- Mass, dry, sprout [7]: 0.39 g/100 plantlings
- Mass, dry, sprout, + % to control [7]: 50%
- Mass, wet, root [7]: 1.35 g/100 plantlings
- Mass, wet, root, + % to control [7]: 48%
- Mass, wet, sprout [7]: 2.30 g/100 plantlings
- Mass, wet, sprout, + % to control [7]: 40%
- Length, root [8]: 6.2 cm
- Length, root, + % to control [8]: 19%
- Length, sprout [8]: 3.6 cm
- Length, sprout, + % to control [8]: 71%
- Mass, dry, root [8]: 0.26 g/100 plantlings
- Mass, dry, root, + % to control [8]: 30%
- Mass, dry, sprout [8]: 0.33 g/100 plantlings
- Mass, dry, sprout, + % to control [8]: 27%
- Mass, wet, root [8]: 1.18 g/100 plantlings
- Mass, wet, root, + % to control [8]: 30%
- Mass, wet, sprout [8]: 2.23 g/100 plantlings
- Mass, wet, sprout, + % to control [8]: 36%
- dry mass of the roots increased by (1·10^−11% solution): 50%
- dry mass of the sprouts increased by (1·10^−11% solution): 50%
- length of the root increased by (1·10^−11% solution): 23%
- length of the sprout increased by (1·10^−11% solution): 90%
- wet mass of the roots increased by (1·10^−11% solution): 48%
- wet mass of the sprouts increased by (1·10^−11% solution): 40%
